Test results from patent US9493447B2, “Optically active PDE10 inhibitor” (OMEROS CORPORATION, priority 2014, dated 2016).
Values belong to the molecule of their own block, whether it stands above or below them.

Tests used:
PDE2A = PDE2A (Homo sapiens (Human), UniProt O00408); experiment: PDE selectivity SPA assay, PDE2A; format: biochemical; conditions: substrate 37 nM H-cGMP
Experimental: (§1) The PDE assay medium consisted of (final concentrations); 50 mM Tris-HCL, pH 7.5; 8.3 mM MgCl2; 1.7 mM EGTA; 0.5 mg/mL bovine serum albumin; and substrate (H-cAMP or H-cGMP). The BSA was lyophilized powder, essentially fatty acid free, ≧96% pure from Sigma (A6003).

Human PDE10 = Human PDE10 (Homo sapiens (Human), UniProt Q9Y233); experiment: Inhibition of Human PDE10 (Example 13, SPA assay); format: biochemical; conditions: substrate 125 nM H-cGMP; all three compounds tested in the same experiment
Sequence of Human PDE10 (Q9Y233 267-1055): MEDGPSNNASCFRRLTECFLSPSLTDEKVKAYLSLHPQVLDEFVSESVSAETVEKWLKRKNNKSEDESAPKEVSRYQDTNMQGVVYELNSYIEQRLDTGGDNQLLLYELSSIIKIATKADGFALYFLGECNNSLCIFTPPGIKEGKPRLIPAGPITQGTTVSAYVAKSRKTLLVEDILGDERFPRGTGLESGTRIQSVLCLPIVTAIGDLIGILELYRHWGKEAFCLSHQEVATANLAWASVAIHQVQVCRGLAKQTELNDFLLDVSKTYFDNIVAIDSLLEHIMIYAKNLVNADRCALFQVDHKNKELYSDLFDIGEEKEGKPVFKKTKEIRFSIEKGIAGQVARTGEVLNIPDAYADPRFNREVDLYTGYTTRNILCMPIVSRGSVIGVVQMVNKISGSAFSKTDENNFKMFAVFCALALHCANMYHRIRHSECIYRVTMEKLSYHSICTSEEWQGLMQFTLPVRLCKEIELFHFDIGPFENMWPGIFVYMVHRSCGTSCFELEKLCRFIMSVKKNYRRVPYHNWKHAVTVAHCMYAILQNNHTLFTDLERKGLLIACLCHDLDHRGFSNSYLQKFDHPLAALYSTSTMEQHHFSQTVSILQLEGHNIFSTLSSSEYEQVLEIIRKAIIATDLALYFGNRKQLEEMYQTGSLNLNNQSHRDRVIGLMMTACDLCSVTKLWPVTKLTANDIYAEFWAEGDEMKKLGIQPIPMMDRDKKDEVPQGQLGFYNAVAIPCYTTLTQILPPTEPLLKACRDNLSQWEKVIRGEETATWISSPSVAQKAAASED
Experimental: as §1

bovine PDE6 = bovine PDE6 (Bos taurus, UniProt P11541+P23439); experiment: PDE selectivity assay, PDE6; format: biochemical
Sequence of bovine PDE6 (P11541 2-859 limits assumed): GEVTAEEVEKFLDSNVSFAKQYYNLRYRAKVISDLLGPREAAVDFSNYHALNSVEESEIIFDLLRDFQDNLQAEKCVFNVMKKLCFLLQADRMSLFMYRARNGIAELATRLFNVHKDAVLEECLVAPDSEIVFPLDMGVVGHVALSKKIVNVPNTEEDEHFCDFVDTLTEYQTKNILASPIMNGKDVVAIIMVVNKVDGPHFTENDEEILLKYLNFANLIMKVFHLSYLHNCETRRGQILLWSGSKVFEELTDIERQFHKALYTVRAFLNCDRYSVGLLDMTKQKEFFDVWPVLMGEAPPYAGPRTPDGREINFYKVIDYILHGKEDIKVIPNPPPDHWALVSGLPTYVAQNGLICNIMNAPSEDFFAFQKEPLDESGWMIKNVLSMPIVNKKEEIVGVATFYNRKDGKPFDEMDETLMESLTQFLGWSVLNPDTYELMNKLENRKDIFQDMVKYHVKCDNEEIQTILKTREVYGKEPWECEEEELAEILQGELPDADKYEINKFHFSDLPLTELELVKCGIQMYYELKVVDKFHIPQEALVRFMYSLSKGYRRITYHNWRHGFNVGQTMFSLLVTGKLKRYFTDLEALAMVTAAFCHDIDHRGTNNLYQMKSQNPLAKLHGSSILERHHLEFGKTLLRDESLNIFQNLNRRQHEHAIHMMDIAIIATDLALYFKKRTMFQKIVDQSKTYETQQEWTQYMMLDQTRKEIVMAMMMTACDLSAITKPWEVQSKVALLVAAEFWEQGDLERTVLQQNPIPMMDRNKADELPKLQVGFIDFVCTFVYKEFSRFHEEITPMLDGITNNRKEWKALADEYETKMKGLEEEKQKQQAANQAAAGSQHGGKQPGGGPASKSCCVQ
Sequence of bovine PDE6 (P23439 2-853 limits assumed): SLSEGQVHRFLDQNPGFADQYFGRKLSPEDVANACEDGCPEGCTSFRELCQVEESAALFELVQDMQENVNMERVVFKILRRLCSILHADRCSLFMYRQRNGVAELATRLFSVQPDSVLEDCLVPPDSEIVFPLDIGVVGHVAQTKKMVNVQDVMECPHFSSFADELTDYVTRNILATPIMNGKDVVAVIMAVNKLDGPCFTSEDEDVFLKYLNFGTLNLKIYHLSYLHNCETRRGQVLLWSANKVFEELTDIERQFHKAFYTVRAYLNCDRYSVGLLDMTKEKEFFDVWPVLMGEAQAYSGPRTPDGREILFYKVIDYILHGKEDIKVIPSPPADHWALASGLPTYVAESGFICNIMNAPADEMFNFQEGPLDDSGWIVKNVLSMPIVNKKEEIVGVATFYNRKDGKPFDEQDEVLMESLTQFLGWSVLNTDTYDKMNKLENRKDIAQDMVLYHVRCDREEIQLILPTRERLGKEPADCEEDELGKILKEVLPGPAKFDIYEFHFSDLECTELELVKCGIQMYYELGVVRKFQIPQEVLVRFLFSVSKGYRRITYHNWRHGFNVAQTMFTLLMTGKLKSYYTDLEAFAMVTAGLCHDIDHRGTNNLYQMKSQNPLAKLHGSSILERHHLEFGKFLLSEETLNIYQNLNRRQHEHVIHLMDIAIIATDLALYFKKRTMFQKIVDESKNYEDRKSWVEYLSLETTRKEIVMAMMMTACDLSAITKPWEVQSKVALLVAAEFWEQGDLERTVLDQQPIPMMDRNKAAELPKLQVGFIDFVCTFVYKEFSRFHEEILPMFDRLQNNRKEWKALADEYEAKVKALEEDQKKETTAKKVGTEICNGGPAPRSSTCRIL
Experimental: as §1

PDE10A2 = PDE10A2 (Homo sapiens (Human), UniProt Q9Y233); experiment: PDE selectivity SPA assay, PDE10A2; format: biochemical; conditions: Table 1 selectivity profile
Sequence of PDE10A2 (Q9Y233 267-1055): as the sequence (Q9Y233 267-1055) above
Experimental: as §1

PDE5A = PDE5A (Homo sapiens (Human), UniProt O76074); experiment: PDE selectivity SPA assay, PDE5A; format: biochemical; conditions: substrate 37 nM H-cGMP
Experimental: as §1

PDE10 = conditions: from Soderling and Beavo 2000; read-out: IC50 (50% inhibitory concentration) PDE10; cited from earlier work

Sequence of PDE2A (O00408 whole entry): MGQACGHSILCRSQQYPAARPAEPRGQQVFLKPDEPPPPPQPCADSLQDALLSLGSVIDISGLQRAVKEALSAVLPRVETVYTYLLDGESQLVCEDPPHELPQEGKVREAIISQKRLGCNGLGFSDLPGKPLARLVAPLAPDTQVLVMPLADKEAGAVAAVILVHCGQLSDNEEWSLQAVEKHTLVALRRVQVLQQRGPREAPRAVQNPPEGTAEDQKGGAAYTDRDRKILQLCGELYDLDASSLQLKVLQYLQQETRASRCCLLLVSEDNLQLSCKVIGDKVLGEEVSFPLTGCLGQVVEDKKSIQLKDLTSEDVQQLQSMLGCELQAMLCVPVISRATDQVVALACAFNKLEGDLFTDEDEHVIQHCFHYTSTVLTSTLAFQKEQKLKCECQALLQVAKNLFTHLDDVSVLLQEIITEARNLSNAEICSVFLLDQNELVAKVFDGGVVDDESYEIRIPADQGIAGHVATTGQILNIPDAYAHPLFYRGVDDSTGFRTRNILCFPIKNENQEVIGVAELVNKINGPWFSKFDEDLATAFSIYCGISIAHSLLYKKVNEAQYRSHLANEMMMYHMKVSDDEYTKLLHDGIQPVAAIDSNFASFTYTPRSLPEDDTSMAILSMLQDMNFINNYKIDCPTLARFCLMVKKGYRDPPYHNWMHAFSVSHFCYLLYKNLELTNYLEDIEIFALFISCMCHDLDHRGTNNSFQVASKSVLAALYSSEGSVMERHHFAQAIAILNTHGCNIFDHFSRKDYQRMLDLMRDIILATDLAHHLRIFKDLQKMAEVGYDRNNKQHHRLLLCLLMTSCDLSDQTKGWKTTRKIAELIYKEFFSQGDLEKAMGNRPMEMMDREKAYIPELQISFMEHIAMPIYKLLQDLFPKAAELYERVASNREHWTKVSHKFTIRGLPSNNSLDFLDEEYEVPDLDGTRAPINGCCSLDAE

IC50 (PDE2A): 545 nM | IC50 (Human PDE10): 0.62 nM | IC50 (bovine PDE6): > 3000 nM | IC50 (PDE10A2): 0.62 nM | IC50 (PDE5A): 5740 nM
Structure (SMILES): CCOC(C(=O)c1ccc(-c2cc(OC)c(Cl)c(OC)c2)o1)c1ccc(-c2nnc(C)s2)cc1 (racemic) [Compound 1001, 1-(5-(4-chloro-3,5-dimethoxyphenyl)furan-2-yl)-2-ethoxy-2-(4-(5-methyl-1,3,4-thiadiazol-2-yl)phenyl)ethanone]

IC50 (Human PDE10): 0.44 nM
Structure (SMILES): CCO[C@H](C(=O)c1ccc(-c2cc(OC)c(Cl)c(OC)c2)o1)c1ccc(-c2nnc(C)s2)cc1 [Compound 2001, (S)-1-(5-(4-chloro-3,5-dimethoxyphenyl)furan-2-yl)-2-ethoxy-2-(4-(5-methyl-1,3,4-thiadiazol-2-yl)phenyl)ethanone]

IC50 (Human PDE10): 5.8 nM
Structure (SMILES): CCO[C@@H](C(=O)c1ccc(-c2cc(OC)c(Cl)c(OC)c2)o1)c1ccc(-c2nnc(C)s2)cc1 [Compound 3001]

Structure (SMILES): CC(C)Cn1c(=O)n(C)c(=O)c2[nH]cnc21 [IBMX]
IC50 (PDE10): 2600 nM
